Experimental data taken from PubChem BioAssay (NCI).
Values joined by “and” are separate entries in the source; they are usually repeats but may differ in a detail not shown here. Identical values can stand only once.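 Following 48 hours of exposure in 96-well plates, responses at five concentrations were used to interpolate endpoints linearly. GI50 marks 50% less growth. TGI: concentration producing complete growth inhibition.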

How the values were obtained:
Assay in all cases: NCI tumour cell line growth inhibition, 48 h
HOP-18 NSCLC = tested on: HOP-18 NSCLC
DMS 273 small cell lung = tested on: DMS 273 small cell lung
DLD-1 colon = tested on: DLD-1 colon
KM20L2 colon = tested on: KM20L2 colon
RXF-631 renal = tested on: RXF-631 renal
XF 498 CNS = tested on: XF 498 CNS
M19-MEL melanoma = tested on: M19-MEL melanoma
LXFL 529 NSCLC = tested on: LXFL 529 NSCLC
P388 leukemia = tested on: P388 leukemia
MDA-N = tested on: MDA-N

Compound: Cc1nc2c(=O)n(C)c(=O)nc-2n(-c2ccc(Cl)cc2)c1C
- TGI (HOP-18 NSCLC): > 100 µM
- TGI (DMS 273 small cell lung): > 100 µM
- TGI (DLD-1 colon): > 100 µM
- TGI (KM20L2 colon): > 100 µM
- TGI (RXF-631 renal): > 100 µM
- TGI (XF 498 CNS): > 100 µM
- TGI (M19-MEL melanoma): > 100 µM
- TGI (LXFL 529 NSCLC): > 100 µM

Compound: COc1cccc2c1C(=N)c1c(O)c3c(c(O)c1C2=O)C[C@@](O)(C(C)=O)C[C@@H]3OC1CC(N)C(O)C(C)O1 (stereo partly specified)
- TGI (HOP-18 NSCLC): 3.48 µM and 2.56 µM
- GI50 (P388 leukemia): 0.0425 µM
- TGI (DMS 273 small cell lung): 1.65 µM and 1.86 µM
- TGI (DLD-1 colon): 5.7 µM and 14.9 µM
- TGI (RXF-631 renal): 3.11 µM
- GI50 (MDA-N): 1.15 µM
- TGI (MDA-N): 10.4 µM
- TGI (XF 498 CNS): 2.26 µM and 2.27 µM
- TGI (M19-MEL melanoma): 2.15 µM and 2.64 µM
- TGI (LXFL 529 NSCLC): 3.54 µM

Compound: CC[N+]1(C)CCC(O)(/C=C/c2ccccc2)C(C(=O)/C=C/c2ccccc2)C1 (stereo unspecified)
- TGI (HOP-18 NSCLC): 31.3 µM
- TGI (DMS 273 small cell lung): 47.3 µM
- TGI (DLD-1 colon): 37.3 µM
- TGI (KM20L2 colon): 49.3 µM
- TGI (MDA-N): 23.7 µM
- TGI (XF 498 CNS): 26.7 µM
- TGI (M19-MEL melanoma): 27.3 µM
- TGI (LXFL 529 NSCLC): 6.7 µM

Compound: COCC(O)CN1C(N)=NC(O)C1O (stereo unspecified)
- TGI (HOP-18 NSCLC): > 100 µM
- TGI (DLD-1 colon): > 100 µM
- TGI (KM20L2 colon): > 100 µM
- TGI (M19-MEL melanoma): > 100 µM
- TGI (LXFL 529 NSCLC): > 100 µM

Compound: NC(=O)NOCC1NC(=O)NC1=O (stereo unspecified)
- TGI (MDA-N): > 100 µM

Compound: O=C1[C@@H]2C3C=CC([C@H]4C(=O)N(CO)C(=O)[C@@H]34)[C@@H]2C(=O)N1CO
- TGI (HOP-18 NSCLC): 86.4 µM
- TGI (DMS 273 small cell lung): > 57.3 µM
- TGI (DLD-1 colon): > 74.1 µM
- TGI (KM20L2 colon): > 31.6 µM
- TGI (XF 498 CNS): > 100 µM
- TGI (M19-MEL melanoma): > 58.8 µM
- TGI (LXFL 529 NSCLC): > 100 µM

Compound: O=C1c2ccccc2CC1C1(O)C(=O)Nc2c(Cl)cc(Cl)cc21 (stereo unspecified)
- TGI (HOP-18 NSCLC): > 100 µM
- TGI (DMS 273 small cell lung): > 100 µM
- TGI (DLD-1 colon): > 100 µM
- TGI (KM20L2 colon): > 100 µM
- TGI (RXF-631 renal): > 100 µM
- TGI (XF 498 CNS): > 100 µM
- TGI (LXFL 529 NSCLC): > 100 µM

Compound: NCCN.O=N[O-].O=N[O-].O=N[O-].O=N[O-].[Co+3].[K+]
- GI50 (DLD-1 colon): > 100 µM
- TGI (DLD-1 colon): > 100 µM
- GI50 (KM20L2 colon): > 100 µM
- TGI (KM20L2 colon): > 100 µM
- GI50 (M19-MEL melanoma): > 100 µM
- TGI (M19-MEL melanoma): > 100 µM
- GI50 (LXFL 529 NSCLC): > 100 µM
- TGI (LXFL 529 NSCLC): > 100 µM

Compound: CCCCCC1C2C(=O)NC(=O)C1C(=O)NC2=O (stereo unspecified)
- TGI (DMS 273 small cell lung): > 100 µM
- TGI (DLD-1 colon): > 100 µM
- TGI (KM20L2 colon): > 100 µM
- TGI (XF 498 CNS): > 100 µM
- TGI (M19-MEL melanoma): > 100 µM
- TGI (LXFL 529 NSCLC): > 100 µM

Compound: O=C1C2=C(Nc3cc([N+](=O)[O-])ccc3N2)OC1c1c[nH]c2ccc(COc3ccccc3)cc12 (stereo unspecified)
- TGI (MDA-N): > 100 µM

Compound: COc1cc(OC)c(-c2oc3ccccc3c(=O)c2O)c(OC)c1
- TGI (MDA-N): 2.93 µM

Compound: O=C(NC(c1ccccc1)C(O)C(=O)OCc1ccc2c(c1)C(=O)c1ccccc1C2=O)c1ccccc1 (stereo unspecified)
- TGI (HOP-18 NSCLC): 10.5 µM
- TGI (P388 leukemia): > 100 µM
- TGI (DMS 273 small cell lung): > 100 µM
- TGI (DLD-1 colon): > 100 µM
- TGI (KM20L2 colon): > 100 µM
- TGI (RXF-631 renal): > 100 µM
- TGI (MDA-N): > 100 µM
- TGI (XF 498 CNS): 35.9 µM
- TGI (M19-MEL melanoma): > 100 µM
- TGI (LXFL 529 NSCLC): > 100 µM

Compound: Cc1nn(C(=O)CC(=O)Nc2ccccc2Cl)c(C)c1N=Nc1ccccc1Cl
- TGI (HOP-18 NSCLC): > 100 µM
- TGI (DMS 273 small cell lung): > 100 µM
- TGI (DLD-1 colon): > 100 µM
- TGI (KM20L2 colon): > 100 µM
- TGI (RXF-631 renal): > 100 µM
- TGI (XF 498 CNS): > 100 µM
- TGI (M19-MEL melanoma): > 100 µM
- TGI (LXFL 529 NSCLC): > 100 µM

Compound: O=S(O)CCCSSCCCCSSCCCS(=O)O
- TGI (HOP-18 NSCLC): > 100 µM
- TGI (DMS 273 small cell lung): > 100 µM
- TGI (DLD-1 colon): > 100 µM
- TGI (KM20L2 colon): > 100 µM
- TGI (XF 498 CNS): > 100 µM
- TGI (M19-MEL melanoma): > 100 µM
- TGI (LXFL 529 NSCLC): > 100 µM

Compound: O=C(Nc1cccc(Cl)c1)c1cc2cc(N=Nc3ccc(Br)cc3)ccc2oc1=O
- TGI (HOP-18 NSCLC): > 100 µM
- TGI (DMS 273 small cell lung): 55.6 µM
- TGI (DLD-1 colon): > 100 µM
- TGI (KM20L2 colon): > 100 µM
- TGI (RXF-631 renal): > 100 µM
- TGI (XF 498 CNS): > 100 µM
- TGI (LXFL 529 NSCLC): 30.5 µM

Compound: CC(C)(O)C1CC(=O)C(C)(C2C(O)CC3(C)C4CC=C5C(CCC(O)C5(C)C)C4(C)C(=O)CC23C)O1 (stereo unspecified)
- TGI (MDA-N): > 100 µM

Compound: O=C1c2cccc3cc4ccccc4c(c23)C(=O)N1CCCNCCNCCCN1C(=O)c2cccc3cc4ccccc4c(c23)C1=O
- TGI (MDA-N): 1.82 µM
